In EP2465840A1, “Terpene ether” (CABB GmbH, priority 2010, dated 2012):
“Also recorded” adds a separate entry of the source.

How the values were obtained:
Format in all cases: physicochemical
[1] = pH of cleaning formulation after addition of terpene ether
[2] = Foam height and foam stability of formulation; details: for h1: Schaumhöhe 5 Minuten nach dem Mischen; for h1 / h0: Lösung mit 0,5 % WAS; for h0: Schaumhöhe eine Minute nach dem Mischen; for Stabilität: Schaumstabilität (h1/h0)*100
Procedure: Die Schaumhöhe der Formulierungen wurde nach folgender Methode ermittelt: In einem 400 ml Becher wurden 100 g einer wässrigen Lösung mit 0,5 % WAS hergestellt. Für eine Minute wurde die Lösung bei […] runden […] wurde die […] Minute […]0) und 5 […]. Die Schaumstabilität in % ergibt sich dann über (h1/h0)*100.

[3] = Appearance of cleaning formulation after 24 h
[4] = Visual evaluation of foam (foam appearance, bubble size); design: key to Blasengröße nach 1 min. / Blasengröße nach 5 min.: klein (1); mittel (2); mittel-groß (3); groß (4); sehr groß (5); key to Aussehen des Schaums nach 1 min. / Aussehen des Schaums nach 5 min.: verschwindend (1); locker (2); mittelkompakt (3); sehr kompakt (4)
Procedure: Die Qualität des Schaums wurde visuell nach der folgenden Methode festgestellt: 100 g der Lösung mit 0,5 % WAS wurden in einen 250 ml Glaszylinder mit Schraubverschluss und einem Innendurchmesser von 35 mm überführt. Der Zylinder wurde 10 mal gedreht und die Blasengröße und die Schaumkompaktheit wurden nach einer Minute nach dem Mischen und nach 5 Minuten ermittelt. Dabei erfolgte die Beurteilung auf der Grundlage der folgenden beschreibenden Parameter:
Aussehen des Schaums: verschwindend (1), locker (2), mittelkompakt (3), sehr kompakt (4)
Blasengröße: klein (1), mittel (2), mittel-groß (3), groß (4), sehr groß (5) Tabelle 4: […]

[5] = Brookfield viscosity (25°C) of cleaning formulation 24 h after addition of terpene ether
Procedure: Im Rahmen der vorliegenden Erfindung wird die Brookfield-Viskosität einer wässrigen Zusammensetzung vorzugsweise mittels einem RTV Brookfield-Viskosimeter bei 25°C ermittelt, besonders bevorzugt mit einer Spindel # 3 oder # 4.
Die in Tabelle 1 angegebene Reinigungsformulierung wurde untersucht. Tabelle 1: Reinigungsformulierung (WAS 15 %)
Zu dieser Formulierung wurden NP 1 oder NP 27 gegeben. Die gemessenen Brookfield-Viskositätswerte nach 24 Stunden werden in Tabelle 2 und 3 zusammengefasst. Tabelle 2: Brookfield-Viskosität (25°C)
Zu dieser Formulierung wurden NP 1 oder NP 27 sowie danach Natriumchlorid gegeben. Die gemessenen Brookfield-Viskositätswerte nach 24 Stunden werden in den folgenden Tabellen zusammengefasst. Tabelle 13: Brookfield-Viskosität (25°C)

[6] = Reinigungsformulierung enthaltend Coco Glucosid, +0,5 %
[7] = Reinigungsformulierung enthaltend Coco Glucosid, +1 %
[8] = Reinigungsformulierung enthaltend Coco Glucosid, +5 %
[9] = Reinigungsformulierung enthaltend Dinatriumlaurylsuccinat (wässrig), +0,5 %
[10] = Reinigungsformulierung enthaltend Dinatriumlaurylsuccinat (wässrig), +1 %
[11] = Reinigungsformulierung enthaltend Dinatriumlaurylsuccinat (wässrig), +5 %
[12] = Reinigungsformulierung enthaltend Coco Glucosid, 0,5 %
[13] = Reinigungsformulierung enthaltend Coco Glucosid, 1 %
[14] = Reinigungsformulierung enthaltend Coco Glucosid, 5 %
[15] = Reinigungsformulierung enthaltend Dinatriumlaurylsuccinat (wässrig), 0,5 %
[16] = Reinigungsformulierung enthaltend Dinatriumlaurylsuccinat (wässrig), 1 %
[17] = Reinigungsformulierung enthaltend Dinatriumlaurylsuccinat (wässrig), 5 %
[18] = Reinigungsformulierung enthaltend Dinatriumlaurylsuccinat (wässrig), +0,5 %, nach 24 Stunden
[19] = Reinigungsformulierung enthaltend Dinatriumlaurylsuccinat (wässrig), +1 %, nach 24 Stunden
[20] = Reinigungsformulierung enthaltend Dinatriumlaurylsuccinat (wässrig), +5 %, nach 24 Stunden
[21] = Reinigungsformulierung enthaltend Natriumlaurylethersulfat, Dinatriumcocoamphodiacetat, 0,5 % NaCl, +0,5 %, nach 24 Stunden
[22] = Reinigungsformulierung enthaltend Natriumlaurylethersulfat, Dinatriumcocoamphodiacetat, 0,5 % NaCl, +0,25 %, nach 24 Stunden
[23] = Reinigungsformulierung enthaltend Natriumlaurylethersulfat, Dinatriumcocoamphodiacetat, 0,5 % NaCl, +1 %, nach 24 Stunden
[24] = Reinigungsformulierung enthaltend Natriumlaurylethersulfat, Dinatriumcocoamphodiacetat, 0,5 % NaCl, +2 %, nach 24 Stunden
[25] = Reinigungsformulierung enthaltend Natriumlaurylethersulfat, Dinatriumcocoamphodiacetat, 1 % NaCl, +0,5 %, nach 24 Stunden
[26] = Reinigungsformulierung enthaltend Natriumlaurylethersulfat, Dinatriumcocoamphodiacetat, 1 % NaCl, +0,25 %, nach 24 Stunden
[27] = Reinigungsformulierung enthaltend Natriumlaurylethersulfat, Dinatriumcocoamphodiacetat, 1 % NaCl, +1 %, nach 24 Stunden
[28] = Reinigungsformulierung enthaltend Natriumlaurylethersulfat, Dinatriumcocoamphodiacetat, 1 % NaCl, +2 %, nach 24 Stunden
[29] = Reinigungsformulierung enthaltend Natriumlaurylethersulfat, Dinatriumcocoamphodiacetat, +0,5 %, nach 24 Stunden
[30] = Reinigungsformulierung enthaltend Natriumlaurylethersulfat, Dinatriumcocoamphodiacetat, +0,25 %, nach 24 Stunden
[31] = Reinigungsformulierung enthaltend Natriumlaurylethersulfat, Dinatriumcocoamphodiacetat, +1 %, nach 24 Stunden
[32] = Reinigungsformulierung enthaltend Natriumlaurylethersulfat, Dinatriumcocoamphodiacetat, +2 %, nach 24 Stunden

Structure (SMILES): CC1(C)C2CCC1(C)C(OCC(O)CO)C2 (stereo not drawn) [NP 1, Glycerin-isobornylether]
- pH [1, 6]: 6
- pH [1, 7]: 6
- pH [1, 8]: 6
- pH [1, 9]: 6,3
- pH [1, 10]: 6,3
- pH [1, 11]: 6,3
- h1 [2, 12]: 200 mm
- h0 [2, 12]: 230 mm
- Stabilität [2, 12]: 87%
- h1 [2, 13]: 210 mm
- h0 [2, 13]: 235 mm
- Stabilität [2, 13]: 89%
- h1 [2, 14]: 230 mm
- h0 [2, 14]: 260 mm
- Stabilität [2, 14]: 88%
- h1 [2, 15]: 220 mm
- h0 [2, 15]: 245 mm
- Stabilität [2, 15]: 90%
- h1 [2, 16]: 225 mm
- h0 [2, 16]: 250 mm
- Stabilität [2, 16]: 90%
- h1 [2, 17]: 225 mm
- h0 [2, 17]: 250 mm
- Stabilität [2, 17]: 90%
- Aussehen nach 24 h [3, 6]: transparent; also recorded: Gel-flüssig
- Aussehen nach 24 h [3, 7]: transparent; also recorded: flüssig
- Aussehen nach 24 h [3, 8]: weiß and flüssig
- Aussehen nach 24 h [3, 9]: transparent; also recorded: flüssig
- Aussehen nach 24 h [3, 10]: transparent; also recorded: Gel-flüssig
- Aussehen nach 24 h [3, 11]: weiß and flüssig
- Aussehen nach 24 h ([3]; Reinigungsformulierung enthaltend Natriumlaurylethersulfat, Dinatriumcocoamphodiacetat, 0,5 % NaCl, +0,5 %): transparent Gel-flüssig
- Aussehen nach 24 h ([3]; Reinigungsformulierung enthaltend Natriumlaurylethersulfat, Dinatriumcocoamphodiacetat, 0,5 % NaCl, +0,25 %): transparent Gel-flüssig
- Aussehen nach 24 h ([3]; Reinigungsformulierung enthaltend Natriumlaurylethersulfat, Dinatriumcocoamphodiacetat, 0,5 % NaCl, +1 %): transparent Gel
- Aussehen nach 24 h ([3]; Reinigungsformulierung enthaltend Natriumlaurylethersulfat, Dinatriumcocoamphodiacetat, 0,5 % NaCl, +2 %): transparent flüssig
- Aussehen nach 24 h ([3]; Reinigungsformulierung enthaltend Natriumlaurylethersulfat, Dinatriumcocoamphodiacetat, 1 % NaCl, +0,5 %): transparent Gel
- Aussehen nach 24 h ([3]; Reinigungsformulierung enthaltend Natriumlaurylethersulfat, Dinatriumcocoamphodiacetat, 1 % NaCl, +0,25 %): transparent Gel
- Aussehen nach 24 h ([3]; Reinigungsformulierung enthaltend Natriumlaurylethersulfat, Dinatriumcocoamphodiacetat, 1 % NaCl, +1 %): transparent Gel
- Aussehen nach 24 h ([3]; Reinigungsformulierung enthaltend Natriumlaurylethersulfat, Dinatriumcocoamphodiacetat, 1 % NaCl, +2 %): transparent flüssig
- Aussehen nach 24 h ([3]; Reinigungsformulierung enthaltend Natriumlaurylethersulfat, Dinatriumcocoamphodiacetat, +0,5 %): transparent flüssig
- Aussehen nach 24 h ([3]; Reinigungsformulierung enthaltend Natriumlaurylethersulfat, Dinatriumcocoamphodiacetat, +0,25 %): transparent flüssig
- Aussehen nach 24 h ([3]; Reinigungsformulierung enthaltend Natriumlaurylethersulfat, Dinatriumcocoamphodiacetat, +1 %): transparent Gel-flüssig
- Aussehen nach 24 h ([3]; Reinigungsformulierung enthaltend Natriumlaurylethersulfat, Dinatriumcocoamphodiacetat, +2 %): transparent Gel-flüssig
- Aussehen des Schaums nach 1 min. [4, 6]: 3
- Aussehen des Schaums nach 5 min. [4, 6]: 1
- Blasengröße nach 1 min. [4, 6]: 3
- Blasengröße nach 5 min. [4, 6]: 5
- Aussehen des Schaums nach 1 min. [4, 7]: 3
- Aussehen des Schaums nach 5 min. [4, 7]: 1
- Blasengröße nach 1 min. [4, 7]: 3
- Blasengröße nach 5 min. [4, 7]: 5
- Aussehen des Schaums nach 1 min. [4, 8]: 3
- Aussehen des Schaums nach 5 min. [4, 8]: 1
- Blasengröße nach 1 min. [4, 8]: 3
- Blasengröße nach 5 min. [4, 8]: 5
- Aussehen des Schaums nach 1 min. [4, 9]: 3
- Aussehen des Schaums nach 5 min. [4, 9]: 2
- Blasengröße nach 1 min. [4, 9]: 3
- Blasengröße nach 5 min. [4, 9]: 4
- Aussehen des Schaums nach 1 min. [4, 10]: 3
- Aussehen des Schaums nach 5 min. [4, 10]: 2
- Blasengröße nach 1 min. [4, 10]: 3
- Blasengröße nach 5 min. [4, 10]: 4
- Aussehen des Schaums nach 1 min. [4, 11]: 3
- Aussehen des Schaums nach 5 min. [4, 11]: 1
- Blasengröße nach 1 min. [4, 11]: 4
- Blasengröße nach 5 min. [4, 11]: 5
- BF-Viskosität (2,5 rpm) [5, 6]: 18200 mPas
- BF-Viskosität (5 rpm) [5, 6]: 17800 mPas
- BF-Viskosität (2,5 rpm) [5, 7]: 3400 mPas
- BF-Viskosität (5 rpm) [5, 7]: 3300 mPas
- BF-Viskosität (2,5 rpm) [5, 8]: 1600 mPas
- BF-Viskosität (5 rpm) [5, 8]: 1100 mPas
- BF-Viskosität (2,5 rpm) [5, 18]: 6200 mPas
- BF-Viskosität (5 rpm) [5, 18]: 6100 mPas
- BF-Viskosität (2,5 rpm) [5, 19]: 17600 mPas
- BF-Viskosität (5 rpm) [5, 19]: 17200 mPas
- BF-Viskosität (2,5 rpm) [5, 20]: 3800 mPas
- BF-Viskosität (5 rpm) [5, 20]: 1800 mPas
- BF-Viskosität (2,5 rpm) [5, 21]: 22800 mPas
- BF-Viskosität (5 rpm) [5, 21]: 21000 mPas
- BF-Viskosität (2,5 rpm) [5, 22]: 17200 mPas
- BF-Viskosität (5 rpm) [5, 22]: 16100 mPas
- BF-Viskosität (2,5 rpm) [5, 23]: 32000 mPas
- BF-Viskosität (5 rpm) [5, 23]: 29600 mPas
- BF-Viskosität (2,5 rpm) [5, 24]: 12800 mPas
- BF-Viskosität (5 rpm) [5, 24]: 12600 mPas
- BF-Viskosität (2,5 rpm) [5, 25]: 37600 mPas
- BF-Viskosität (5 rpm) [5, 25]: 33200 mPas
- BF-Viskosität (2,5 rpm) [5, 26]: 31200 mPas
- BF-Viskosität (5 rpm) [5, 26]: 27600 mPas
- BF-Viskosität (2,5 rpm) [5, 27]: 38400 mPas
- BF-Viskosität (5 rpm) [5, 27]: 36000 mPas
- BF-Viskosität (2,5 rpm) [5, 28]: 4400 mPas
- BF-Viskosität (5 rpm) [5, 28]: 4200 mPas
- BF-Viskosität (2,5 rpm) [5, 29]: 10400 mPas
- BF-Viskosität (5 rpm) [5, 29]: 10200 mPas
- BF-Viskosität (2,5 rpm) [5, 30]: 7200 mPas
- BF-Viskosität (5 rpm) [5, 30]: 7200 mPas
- BF-Viskosität (2,5 rpm) [5, 31]: 22800 mPas
- BF-Viskosität (5 rpm) [5, 31]: 22000 mPas
- BF-Viskosität (2,5 rpm) [5, 32]: 18400 mPas
- BF-Viskosität (5 rpm) [5, 32]: 18200 mPas
